Measured values as given in patent publication US8017612B2, “Piperazine compound and use thereof as a HCV polymerase inhibitor” (priority 2006, dated 2011).
Counter-ions that a name gives are not always drawn.

Assays:
[1] = target: T1, HCV polymerase (NS5B) type 1a (Hepatitis C virus genotype 1a, UniProt P26664); assay: Assay of enzyme (HCV polymerase) inhibitory activity, type 1a enzyme; assay type: biochemical, HCV type 1a (cloned from the blood of patients)
T1 construct: made in house; host or cells: Escherichia coli (by the 'similar method' of the 1b enzyme)
Procedure, shortened: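 His-tagged NS5B, C-terminal 47 residues deleted, type 1a at 1.5 μg/ml, with 5 μg/ml HCV 3′UTR substrate RNA, 50 μM ATP/GTP/CTP, 2 μM UTP plus [3H]UTP, pH 7.5 Tris, 5 mM MgCl2; 60 min at 25° C. TCA-precipitated RNA counted by scintillation; IC50 from radioactivity with vs. without compound.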

[2] = target: T2, HCV polymerase (NS5B) type 1b (Hepatitis C virus genotype 1b, UniProt P26663); assay: Assay of enzyme (HCV polymerase) inhibitory activity, type 1b enzyme; assay type: biochemical, HCV BK strain (type 1b)
T2 construct: a region encoding NS5B (J Virol 1991 March, 65(3), 1105-13, 544 amino acids after deletion of 47 amino acids on the C-terminal); 6xHis (C); made in house; host or cells: Escherichia coli
Procedure, shortened: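 His-tagged, C-terminally truncated NS5B (BK strain, 1b; 0.5 μg/ml) incubated with compound 60 min at 25 °C on 3′UTR-derived substrate RNA (5 μg/ml), 50 μM ATP/GTP/CTP, 2 μM UTP plus [3H]UTP, pH 7.5. Acid-precipitated RNA counted; IC50 from radioactivity with and without compound.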

[3] = HCV polymerase inhibitory activity IC50, 1a, type 1a enzyme
[4] = HCV polymerase inhibitory activity IC50, 1b, type 1b enzyme
[5] = HCV polymerase inhibitory activity (IC50), 1a, type 1a enzyme 1.5 μg/ml, 25° C., 60 min
[6] = HCV polymerase inhibitory activity (IC50), 1b, type 1b enzyme 0.5 μg/ml, 25° C., 60 min

`O=C(NCc1ccc(OC(F)(F)F)cc1)[C@H]1CN(c2nc3c(=O)n(CCO)ncc3s2)CCN1S(=O)(=O)c1ccc(OC(F)(F)F)cc1` [Example 1078, (R)-4-[5-(2-hydroxy-ethyl)-4-oxo-4,5-dihydro-thiazolo[4,5-d]pyridazin-2-yl]-1-(4-trifluoromethoxy-benzenesulfonyl)-piperazine-2-carboxylic acid 4-trifluoromethoxy-benzylamide] was tested, and the IC50 [1, 3] was under 100 nM and the IC50 [2, 4] was under 100 nM.

For `CC(=O)N1CCN(S(=O)(=O)c2ccc(C(C)C)cc2)[C@@H](C(=O)NCc2ccc(C(C)(C)C(=O)N(C)C)cc2)C1` [Example 233, (R)-4-acetyl-1-(4-isopropyl-benzenesulfonyl)-piperazine-2-carboxylic acid 4-(1-dimethylcarbamoyl-1-methyl-ethyl)-benzylamide], the IC50 [1, 5] was over 1000 nM and the IC50 [2, 6] was over 1000 nM.

Work on `CC(C)c1ccc(CNC(=O)[C@H]2CN(c3cnc(C(N)=O)cn3)CCN2S(=O)(=O)c2ccc(C(F)(F)F)cc2)cc1` [Example 377, (R)-4-(4-trifluoromethyl-benzenesulfonyl)-3,4,5,6-tetrahydro-2H-[1,2′]bipyrazinyl-3,5′-dicarboxylic acid 5′-amide 3-(4-isopropyl-benzylamide)] yielded an IC50 [1, 5] of under 100 nM and an IC50 [2, 6] of under 100 nM.

With `CCC(F)(F)c1ccc(CNC(=O)[C@H]2CN(C(=O)Cn3cnnn3)CCN2S(=O)(=O)c2ccc(OC(F)(F)F)cc2)cc1` [Example 464, (R)-4-(2-tetrazol-1-yl-acetyl)-1-(4-trifluoromethoxy-benzenesulfonyl)-piperazine-2-carboxylic acid 4-(1,1-difluoro-propyl)-benzylamide] the IC50 [1, 5] was under 100 nM and the IC50 [2, 6] was under 100 nM.

Compound `COc1cccc(NC(=O)N2CCN(S(=O)(=O)c3ccc(C(F)(F)F)cc3)[C@@H](C(=O)NCc3ccc(C(C)C)cc3)C2)c1` [Example 273, (R)-4-(4-trifluoromethyl-benzenesulfonyl)-piperazine-1,3-dicarboxylic acid 3-(4-isopropyl-benzylamide) 1-[(3-methoxy-phenyl)-amide]] has an IC50 [1, 5] of over 1000 nM and an IC50 [2, 6] of 100 to 1000 nM.

`O=C(NCc1ccc(OC(F)F)c(F)c1)[C@H]1CN(c2nc3nc(C4CC4)[nH]c(=O)c3s2)CCN1S(=O)(=O)c1ccc(OC(F)(F)F)cc1` [Example 1113, (R)-4-(5-cyclopropyl-7-oxo-6,7-dihydro-thiazolo[4,5-d]pyrimidin-2-yl)-1-(4-trifluoromethoxy-benzenesulfonyl)-piperazine-2-carboxylic acid 4-difluoromethoxy-3-fluoro-benzylamide] was tested, and the IC50 [1, 3] was under 100 nM and the IC50 [2, 4] was under 100 nM.

With `O=C(NCc1ccc(OC(F)(F)F)cc1)[C@H]1CN(c2nc3cnnc(Cl)c3s2)CCN1S(=O)(=O)c1ccc(C(F)(F)F)cc1` [Example 896, (R)-4-(7-chloro-thiazolo[4,5-d]pyridazin-2-yl)-1-(4-trifluoromethyl-benzenesulfonyl)-piperazine-2-carboxylic acid 4-trifluoromethoxy-benzylamide] the IC50 [1, 3] was under 100 nM and the IC50 [2, 4] was under 100 nM.

With `CC(=O)N1CCN(S(=O)(=O)c2ccc(C(C)C)cc2)C(C(=O)NCc2ccc(OC(F)(F)F)cc2)C1` (stereo not shown) [Example 53, 4-acetyl-1-(4-isopropyl-benzenesulfonyl)-piperazine-2-carboxylic acid 4-trifluoromethoxy-benzylamide] the IC50 [1, 5] was 100 to 1000 nM and the IC50 [2, 6] was 100 to 1000 nM.

`CC(=O)N1CCN(S(=O)(=O)c2ccc(OC(F)(F)F)cc2)[C@@H](C(=O)NCc2ccc(-c3cccs3)s2)C1` [Example 622, (R)-4-acetyl-1-(4-trifluoromethoxy-benzenesulfonyl)-piperazine-2-carboxylic acid ([2,2′]bithiophenyl-5-ylmethyl)-amide] gave an IC50 [1, 5] of under 100 nM and an IC50 [2, 6] of 100 to 1000 nM.

In the case of `CC(=O)N1CCN(S(=O)(=O)c2ccc3ccccc3c2)C(C(=O)NCc2ccc(C(F)(F)F)cc2)C1` (stereo not shown) [Example 164, 4-acetyl-1-(naphthalene-2-sulfonyl)-piperazine-2-carboxylic acid 4-trifluoromethyl-benzylamide], the IC50 [1, 5] is reported as over 1000 nM and the IC50 [2, 6] is reported as over 1000 nM.

Work on `CCCc1ccc(CNC(=O)[C@H]2CN(C(=O)Nc3nc(CCO)cs3)CCN2S(=O)(=O)c2ccc(OC(F)(F)F)cc2)cc1` [Example 476, (R)-4-(4-trifluoromethoxy-benzenesulfonyl)-piperazine-1,3-dicarboxylic acid 1-{[4-(2-hydroxy-ethyl)-thiazol-2-yl]-amide} 3-(4-propyl-benzylamide)] yielded an IC50 [1, 5] of 100 to 1000 nM and an IC50 [2, 6] of 100 to 1000 nM.

In the case of `CN(C)c1ccc(CNC(=O)[C@H]2CN(C(=O)CN)CCN2S(=O)(=O)c2ccc(C(F)(F)F)cc2)cc1` [Example 262, (R)-4-(2-amino-acetyl)-1-(4-trifluoromethyl-benzenesulfonyl)-piperazine-2-carboxylic acid 4-dimethylamino-benzylamide dihydrochloride], the IC50 [1, 5] is reported as over 1000 nM and the IC50 [2, 6] is reported as over 1000 nM.

For `CCC(F)(F)c1ccc(CNC(=O)[C@H]2CN(c3cnc4cncnc4n3)CCN2S(=O)(=O)c2ccc([C@H]3CC[C@H](CC(=O)O)CC3)cc2)cc1` [Example 744, trans-[4-(4-{(R)-2-[4-(1,1-difluoro-propyl)-benzylcarbamoyl]-4-pteridin-7-yl-piperazine-1-sulfonyl}-phenyl)-cyclohexyl]-acetic acid], the IC50 [1, 3] was under 100 nM and the IC50 [2, 4] was under 100 nM.

Compound `CC(C)c1ccc(S(=O)(=O)N2CCN(C(=O)CO)CC2C(=O)NCc2ccc(C(F)(F)F)cc2)cc1` (stereo not shown) [Example 55, 4-(2-hydroxy-acetyl)-1-(4-isopropyl-benzenesulfonyl)-piperazine-2-carboxylic acid 4-trifluoromethyl-benzylamide] has an IC50 [1, 5] of over 1000 nM and an IC50 [2, 6] of over 1000 nM.

`CC(C)c1ccc(CNC(=O)[C@H]2CN(C(=O)Nc3cccc(OCC(=O)O)c3)CCN2S(=O)(=O)c2ccc(C(F)(F)F)cc2)cc1` [Example 260, (3-{[(R)-3-(4-isopropyl-benzylcarbamoyl)-4-(4-trifluoromethyl-benzenesulfonyl)-piperazine-1-carbonyl]-amino}-phenoxy)-acetic acid] showed an IC50 [1, 5] of 100 to 1000 nM and an IC50 [2, 6] of 100 to 1000 nM.

For `CCC(CC)c1ccc(S(=O)(=O)N2CCN(C(C)=O)CC2C(=O)NCc2ccc(C(F)(F)F)cc2)cc1` (stereo not shown) [Example 162, 4-acetyl-1-[4-(1-ethyl-propyl)-benzenesulfonyl]-piperazine-2-carboxylic acid 4-trifluoromethyl-benzylamide], the IC50 [1, 5] was over 1000 nM and the IC50 [2, 6] was over 1000 nM.

Compound `CC(=O)N1CCN(S(=O)(=O)c2ccc(C3CCCCC3)cc2)C(C(=O)NCc2ccc(C(F)(F)F)cc2)C1` (stereo not shown) [Example 167, 4-acetyl-1-(4-cyclohexyl-benzenesulfonyl)-piperazine-2-carboxylic acid 4-trifluoromethyl-benzylamide] has an IC50 [1, 5] of over 1000 nM and an IC50 [2, 6] of over 1000 nM.

`CC(C)c1ccc(S(=O)(=O)N2CCN(C(N)=S)CC2C(=O)NCc2ccc(C(F)(F)F)cc2)cc1` (stereo not shown) [Example 111, 1-(4-isopropyl-benzenesulfonyl)-4-thiocarbamoyl-piperazine-2-carboxylic acid 4-trifluoromethyl-benzylamide] was tested, and the IC50 [1, 5] was over 1000 nM and the IC50 [2, 6] was over 1000 nM.

In the case of `CC(C)c1ccc(CNC(=O)[C@H]2CN(C(=O)CCC(=O)O)CCN2S(=O)(=O)c2ccc(C(F)(F)F)cc2)cc1` [Example 187, 4-[(R)-3-(4-isopropyl-benzylcarbamoyl)-4-(4-trifluoromethyl-benzenesulfonyl)-piperazin-1-yl]-4-oxo-butyric acid], the IC50 [1, 5] is reported as over 1000 nM and the IC50 [2, 6] is reported as over 1000 nM.

In the case of `COCC1(c2ncc3sc(N4CCN(S(=O)(=O)c5ccc(OC(F)(F)F)cc5)[C@@H](C(=O)NCc5ccc(OC(F)(F)F)cc5)C4)nc3n2)CC1` [Example 1076, (R)-4-[5-(1-methoxymethyl-cyclopropyl)-thiazolo[4,5-d]pyrimidin-2-yl]-1-(4-trifluoromethoxy-benzenesulfonyl)-piperazine-2-carboxylic acid 4-trifluoromethoxy-benzylamide], the IC50 [1, 3] is reported as under 100 nM and the IC50 [2, 4] is reported as under 100 nM.

`CC(=O)N1CCN(S(=O)(=O)c2cc(C)cc(C)c2Oc2ccc(C#N)cc2)C(C(=O)NCc2ccc(C(F)(F)F)cc2)C1` (stereo not shown) [Example 27, 4-acetyl-1-[2-(4-cyano-phenoxy)-3,5-dimethyl-benzenesulfonyl]-piperazine-2-carboxylic acid 4-trifluoromethyl-benzylamide] was tested, and the IC50 [1, 5] was over 1000 nM and the IC50 [2, 6] was over 1000 nM.

`Cc1nc(N2CCN(S(=O)(=O)c3ccc(OC(F)(F)F)cc3)[C@@H](C(=O)NCCc3ccccc3)C2)sc1C(=O)O` [Example 418, 4-methyl-2-[(R)-3-phenethylcarbamoyl-4-(4-trifluoromethoxy-benzenesulfonyl)-piperazin-1-yl]-thiazole-5-carboxylic acid] showed an IC50 [1, 5] of over 1000 nM and an IC50 [2, 6] of over 1000 nM.

Work on `Cc1nc(N2CCN(S(=O)(=O)c3ccc(OC(F)(F)F)cc3)[C@@H](C(=O)NCc3ccc(C(C)C)nc3)C2)sc1C(=O)O` [Example 13, 2-[(R)-3-[(6-isopropyl-pyridin-3-ylmethyl)-carbamoyl]-4-(4-trifluoromethoxy-benzenesulfonyl)-piperazin-1-yl]-4-methyl-thiazole-5-carboxylic acid] yielded an IC50 [1, 5] of under 100 nM and an IC50 [2, 6] of under 100 nM.
